This note sets out measurements from PMC10714399, “Open Source Antibiotics: Simple Diarylimidazoles Are Potent against Methicillin-Resistant Staphylococcus aureus” (ACS Infectious Diseases, 2023).

Data set [1] concerns Cryptococcus neoformans H99 ATCC 208821. Kind of data set: CO-ADD antifungal assay, C. neoformans. It is filed as cell-based. The settings on record: ATCC208821. As to the method:
(§1) Hit Confirmation of active compounds by whole cell growth inhibition assays was conducted as an 8-point dose response to determine the Minimum Inhibitory Concentration (MIC), in duplicate (n=2). The inhibition of growth is measured against those microorganisms that […]
Included in the Hit Confirmation were 5 bacteria: Escherichia coli, Klebsiella pneumoniae, Acinetobacter baumannii, Pseudomonas aeruginosa and Staphylococcus aureus, and 2 fungi Candida albicans and Cryptococcus neoformans.
In addition to determining MIC, active compounds were counter screened for cytotoxicity against a human embryonic kidney cell line, HEK293, by determining their CC50 value. The compounds were also screened for haemolysis of human red blood cells.
(§2) Assay Parameters Bacteria Fungi HEK293 Haemolysis […]
(§3) Duplicate (n=2) Duplicate (n=2) Duplicate (n=2) Duplicate (n=2)
(§4) QC Control MIC: Control MIC: Control CC50: Control HC10:
(§5) Non-Binding Non-Binding TC, 384-well Polypropylene […]
Fungi strains were cultured for 3 days on Yeast Extract-Peptone Dextrose (YPD) agar at 30 °C. A yeast suspension of 1 x 10^6 to 5 x 10^6 CFU/mL (as determined by OD530) was prepared from five colonies. […]
In both cases, the percentage of growth inhibition was calculated for each well, using the negative control (media only) and positive control (fungi without inhibitors) on the same plate. […]
(§6) Reading Plates - Haemolysis Clear 384w Corning 3680 […]

A further data set in a line: in vitro. It is filed as cell-based. As to conditions: human. Here is the method:
HEK293 cells were counted manually in a Neubauer haemocytometer and then plated in the 384-well plates containing the compounds to give a density of 5000 cells/well in a final volume of 50 µL. DMEM supplemented with 10% FBS was used as growth media and the cells were incubated together with the compounds for 20 h at 37 °C in 5% CO2.
Cytotoxicity (or cell viability) was measured by fluorescence, ex: 560/10 nm, em: 590/10 nm (F560/590), after addition of 5 µL of 25 µg/mL resazurin (2.3 µg/mL final concentration) and after incubation for further 3 h at 37 °C in 5% CO2. The fluorescence intensity was measured using a Tecan M1000 Pro monochromator plate reader, using automatic gain calculation. […]
Human whole blood was washed three times with 3 volumes of 0.9% NaCl and then resuspended in same to a concentration of 0.5 x 10^8 cells/mL, as determined by manual cell count in a Neubauer haemocytometer. […]
Haemolysis was determined by measuring the supernatant absorbance at […] (OD405).
The absorbance was measured using a Tecan M1000 Pro monochromator plate reader.
HC10 and HC50 (concentration at 10% and 50% haemolysis, respectively) were calculated by curve fitting the inhibition values vs. log(concentration) using a sigmoidal dose-response function with variable fitting values for top, bottom and slope. […]
as §6

Data set [2] can be described thus: HEK293 toxicity, 96-well dose-response (UCL; MTT or resazurin, with or without recovery). It is filed as cell-based, human. The settings on record: human, HEK293 cells; across protocol variations (recovery yes/no, MTT/resazurin); read-out: CC50 HEK293. As to the method:
The importance of balancing potency vs MRSA and cytotoxicity led us to examine a subset of compounds more thoroughly for toxicity against human embryonic kidney cell line HEK293. […] Dmax is a parameter that quantifies toxicity at the highest tested concentration (32 μg/mL for all compounds), calculated as reciprocal percentage of viable cells (100 – viability%), where cells either were allowed to recover or viability was measured immediately after treatment. […] Our efforts focused on trying to replicate the original toxicity experiments (by CO-ADD) with tamoxifen using a protocol modified for use with 96-well plates. Given the variability of protocols and results in the literature,[28] it was important to compare with a standard protocol we have reliably used in our own laboratories.[29]−[33] […] Truly “non-toxic” compounds might be expected to show Dmax < 50% for all experiment variations, e.g., 861. […] A large spread of Dmax values comparing recovery and non-recovery conditions larger than 20% is perhaps indicative of a mechanism of toxicity that persists beyond exposure, i.e., cytotoxic compounds that continue to induce toxicity as cells recover and restart dividing, for example, compounds 865, 870, 871, 980, and 981. […] This variability could be driven by interference of the compounds with the fluorescence readout or resorufin build-up as previously described.[27]
HEK293 cells (ATCC, UK) at passage 32 were a kind gift from Dr. Ben Allsop from the Translational Research Office at University College London. Cells were tested for mycoplasma using a MycoAlert Detection Kit (Lonza, Switzerland) as per manufacturer instructions, frozen stocks were stored in liquid nitrogen, and cells were re-tested whenever a new aliquot was thawed.
Cells were maintained in DMEM (Sigma-Aldrich, UK) supplemented with 10% heat-inactivated FBS (Sigma-Aldrich, UK), 1% GlutaMax (ThermoFisher, UK), and 1% sodium pyruvate (Lonza, UK) without antibiotics in an incubator at 37 °C and 5% CO2. Media was changed every 2 days, and cells were passaged every 3–4 days at a subcultivation ratio of 1:10, by detaching the cells with phenol-free TrypLE Express (ThermoFisher, UK), after washing with HBSS Ca^2+/Mg^2+ (ThermoFisher, UK). Up to 55 passages were used throughout the experiments.
(a) Cell seeding: At subculture, a dilute solution of cells was counted using Trypan Blue (Sigma-Aldrich, UK) and a hemocytometer. Cells were further diluted to 7000 or 50 000 cells/mL for experiments.
For recovery experiments, 700 cells (100 μL) were seeded in 96-well plates and incubated for 48 h while cells reached exponential phase.
For non-recovery experiments, 5000 cells (100 μL) were seeded in 96-well plates and incubated for 48 h while cells reached confluence. This is the same number of cells as per the CO-ADD protocol where 384-well plates were used, but we extended the growth time to 48 h to produce a similar confluency.
Stock solutions were diluted 100 times (to 1% DMSO) to 32 μg/mL in full medium (vortexed briefly) and then serially diluted using a digital pipet (Explorer, Eppendorf, Germany) at a dilution factor of 2 to a final concentration of […].
(c) Dosing experiments: At the specified time after seeding, media was removed from cells, cells were washed with HBSS Ca^2+/Mg^2+ (100 μL), and 100 μL of diluted compounds were added as per Supporting Information - Biology, Figure S4, and incubated for 24 h.
After treatment, solutions were removed, and cells were washed with HBSS Ca^2+/Mg^2+. For non-recovery experiments, viability was determined immediately as described below.
For recovery experiments, fresh media was added to plates (100 μL) and cells were returned to the incubator for another 72 h, after which viability was recorded as described below.
i. MTT assay: 3-[4,5-Dimethylthiazol-2-yl]-2,5-diphenyltetrazolium bromide (MTT) (Sigma-Aldrich, UK) was dissolved in sterile PBS at 5 mg/mL with sonication (20 min), protected from light. […]
On the technique in general: The colour change of resazurin is a common sign of viable cells or microbes.

The subject of data set [3] is Acinetobacter baumannii ATCC 19606. Kind of data set: CO-ADD antibacterial assay, A. baumannii. It is filed as cell-based. Here is the method:
as §1
(§7) Included in the Hit Confirmation were 5 bacteria: Escherichia coli, Klebsiella pneumoniae, Acinetobacter baumannii, Pseudomonas aeruginosa and Staphylococcus aureus, and 2 fungi Candida albicans and Cryptococcus neoformans. […]
as §2, §3, §4, §5
(§8) All bacteria were cultured in Cation-adjusted Mueller Hinton broth (CAMHB) at 37 °C overnight. […] The resultant mid-log phase cultures were diluted (CFU/mL measured by OD600), then added to each well of the compound containing plates, giving a cell density of 5×10^5 CFU/mL and a total volume of 50 µL. […]
(§9) Inhibition of bacterial growth was determined measuring absorbance at 600 nm (OD600), using a Tecan M1000 Pro monochromator plate reader. The percentage of growth inhibition was calculated for each well, using the negative control (media only) and positive control (bacteria without inhibitors) on the same plate as references. […]

Data set [4] concerns Pseudomonas aeruginosa ATCC 27853. The experiment in a line: CO-ADD antibacterial assay, P. aeruginosa. It is filed as cell-based. Here is the method:
as §1, §7, §2, §3, §4, §5, §8, §9

Data set [5] has as its system Klebsiella pneumoniae ATCC 700603. Kind of data set: CO-ADD antibacterial assay, K. pneumoniae. It is filed as cell-based. Here is the method:
as §1, §7, §2, §3, §4, §5, §8, §9

In data set [6] the test system is Escherichia coli ATCC 25922. The experiment in a line: CO-ADD antibacterial assay, E. coli. It is filed as cell-based. Here is the method:
as §1, §7, §2, §3, §4, §5, §8, §9

Values after ≈ are worked out from the molar mass of the structure shown.

Usually MIC stands for the smallest concentration in the dilution series that meets the test's criterion for growth inhibition. For `OC(Cn1cncn1)(Cn1cncn1)c1ccc(F)cc1F` [Fluconazole], in data set [1], the MIC worked out at 8 µg/mL.
The CC50 is the concentration at which the toxic effect on the cells reaches its halfway point. With `CC/C(=C(\c1ccccc1)c1ccc(OCCN(C)C)cc1)c1ccccc1` [tamoxifen, reference compound], the CC50 at 20 h in “in vitro” came to 9 µg/mL (≈ 24.2 µM). The CC50 at 24 h in data set [2] is 5.3 to 15.5 µg/mL (≈ 14.3 to 41.7 µM).
As to Colistin - Sulfate, in data set [3], the “MIC Acinetobacter baumannii” value is recorded as 0.25 µg/mL. Further, the “MIC Pseudomonas aeruginosa” value in data set [4] amounted to 0.25 µg/mL. The “MIC Klebsiella” value in data set [5] turned out to be 0.25 µg/mL. The “MIC Escherichia coli” value in data set [6] was 0.125 µg/mL.
